Experimental data: US10214512B2, “Factor XIA inhibitors” (MERCK SHARP & DOHME CORP., priority 2015, dated 2019)
Read-outs that look alike come from different tables or passages of the source.

How the values were obtained:
[1] = target: purified human Factor XIa (Homo sapiens (Human), UniProt P03951); assay: Factor XIa Assay; type: biochemical; conditions: purified human Factor XIa 40 pM; substrate Z-Gly-Pro-Arg-AFC 100 μM; 50 mM HEPES pH 7.4; read-out: Human FXIa Ki
Method: (§1) The effectiveness of a compound of the present invention as an inhibitor of Coagulation Factor XIa can be determined using a relevant purified serine protease, and an appropriate synthetic substrate. The rate of hydrolysis of the chromogenic or fluorogenic substrate by the relevant serine protease was measured both in the absence and presence of compounds of the present invention. Assays were conducted at rt or at 37° C. […] A decrease in the rate of fluorescence change in the presence of inhibitor is indicative of enzyme inhibition. Such methods are known to one skilled in the art. The results of this assay are expressed as the inhibitory constant, Ki.
Factor XIa determinations were made in 50 mM HEPES buffer at pH 7.4 containing 150 mM NaCl, 5 mM CaCl2, and 0.1% PEG 8000 (polyethylene glycol; JT Baker or Fisher Scientific). Determinations were made using purified human Factor XIa at a final concentration of 40 pM (Sekisui Diagnostics) and he synthetic substrate, Z-Gly-Pro-Arg-AFC, TFA salt (Sigma #C0980) at a concentration of 100 μM.
Times required to achieve equilibration between enzyme and inhibitor were determined in control experiments. Initial velocities of product formation in the absence (Vo) or presence of inhibitor (Vi) were measured. Assuming competitive inhibition, and that unity is negligible compared Km/[S], [I]/e, and [I]/e (where [S], [I], and e respectively represent the total concentrations, of substrate, inhibitor and enzyme), the equilibrium constant (Ki) for dissociation of the inhibitor from the enzyme can be obtained from the dependence of Vo/Vi on [I] shown in the following equation.

[2] = target: purified Human plasma Kallikrein (Homo sapiens (Human), UniProt P03952); assay: Kallikrein Assay; type: biochemical
Method: as §1, with “Kallikrein” for “Coagulation Factor XIa”
Kallikrein determinations were made in 50 mM HEPES buffer at pH 7.4 containing 150 mM NaCl, 5 mM CaCl2, and 0.1% PEG 8000 (polyethylene glycol; Fisher Scientific). Determinations were made using purified Human plasma Kallikrein at a final concentration of 0.5 nM (Enzyme Research Laboratories) and the synthetic substrate, Acetyl-K-P-R-AFC (Sigma # C6608) at a concentration of […].
Times required to achieve equilibration between enzyme and inhibitor were determined in control experiments. […] IC50 was determined by inflection point from a four parameter logistic curve fit. Ki was calculated using the Cheng Prusoff equation, Ki=IC50/(1+([S]/Km)).

[3] = purified Human plasma Kallikrein 0.5 nM, substrate Acetyl-K-P-R-AFC, 50 mM HEPES pH 7.4, Ki from IC50 by Cheng Prusoff

purified human Factor XIa, sequence (P03951 388-625): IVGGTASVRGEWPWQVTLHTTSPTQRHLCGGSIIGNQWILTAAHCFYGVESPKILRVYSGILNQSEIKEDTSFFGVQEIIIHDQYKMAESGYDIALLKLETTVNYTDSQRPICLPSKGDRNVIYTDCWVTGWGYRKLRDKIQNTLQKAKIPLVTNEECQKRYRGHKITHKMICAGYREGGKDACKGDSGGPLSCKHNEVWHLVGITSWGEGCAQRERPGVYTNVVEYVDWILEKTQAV
purified human Factor XIa, sequence (P03951 19-387 partner): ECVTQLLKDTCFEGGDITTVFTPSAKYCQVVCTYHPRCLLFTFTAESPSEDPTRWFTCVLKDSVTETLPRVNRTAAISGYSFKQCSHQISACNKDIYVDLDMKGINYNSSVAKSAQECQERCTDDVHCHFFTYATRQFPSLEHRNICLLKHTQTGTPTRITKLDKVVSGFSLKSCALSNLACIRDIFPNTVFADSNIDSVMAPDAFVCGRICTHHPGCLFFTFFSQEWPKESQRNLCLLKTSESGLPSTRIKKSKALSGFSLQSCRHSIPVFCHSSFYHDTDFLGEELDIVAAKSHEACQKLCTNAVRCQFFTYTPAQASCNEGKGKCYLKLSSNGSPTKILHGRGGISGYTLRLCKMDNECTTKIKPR
purified Human plasma Kallikrein, sequence (P03952 391-638): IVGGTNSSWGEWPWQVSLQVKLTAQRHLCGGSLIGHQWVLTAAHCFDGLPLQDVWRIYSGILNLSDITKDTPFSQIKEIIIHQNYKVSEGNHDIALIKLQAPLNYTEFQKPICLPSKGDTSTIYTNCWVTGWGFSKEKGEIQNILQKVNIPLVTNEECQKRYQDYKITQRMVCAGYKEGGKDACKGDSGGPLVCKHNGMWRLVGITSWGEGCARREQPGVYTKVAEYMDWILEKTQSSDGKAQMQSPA
purified Human plasma Kallikrein, sequence (P03952 20-390 partner): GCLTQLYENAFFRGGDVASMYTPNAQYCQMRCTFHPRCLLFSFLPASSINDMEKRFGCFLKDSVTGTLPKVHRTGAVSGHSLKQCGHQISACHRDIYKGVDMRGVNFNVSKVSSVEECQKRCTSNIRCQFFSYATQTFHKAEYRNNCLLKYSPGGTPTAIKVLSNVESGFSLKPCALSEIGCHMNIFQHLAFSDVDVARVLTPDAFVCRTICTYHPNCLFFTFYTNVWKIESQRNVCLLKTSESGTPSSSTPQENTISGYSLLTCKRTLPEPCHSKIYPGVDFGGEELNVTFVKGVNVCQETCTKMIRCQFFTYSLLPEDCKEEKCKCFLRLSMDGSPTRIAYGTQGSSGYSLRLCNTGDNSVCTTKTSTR

Compound	Ki [1]	Ki [2, 3]	Ki [2]
C[C@@H]1CCC[C@H](c2ccc(-c3ccccc3-n3cc(Cl)nn3)c[n+]2[O-])c2cccc(c2)-c2c(cnn2C(F)F)NC1=O (single isomer, unassigned) [Example 172-a]	1.37 nM	376 nM	
COC(=O)Nc1ccc2c(c1)NC(=O)CC1CC1CC(c1ccc(-c3c(F)cccc3C(F)F)c[n+]1[O-])c1nc-2c(C)[nH]1 (racemic) [Example 156]	1.55 nM	13.6 nM	
COC(=O)Nc1ccc2c(c1)NC(=O)CCCC[C@H](c1ccc(-c3cc(F)ccc3OC(F)(F)F)c[n+]1[O-])c1nc-2c(C)[nH]1 (single isomer, unassigned) [Example 132]	0.22 nM	5.94 nM	
COC(=O)Nc1ccc2c(c1)NC(=O)C1(CCC[C@H](c3ccc(-c4c(F)cccc4OC(F)F)c[n+]3[O-])c3nc-2c(C)[nH]3)CC1 (single isomer, unassigned) [Example 148]	2.5 nM	37.3 nM	
O=C1CCCCC(c2ccc(-c3cc(Cl)ccc3-n3cnnn3)c[n+]2[O-])c2cc[n+]([O-])c(c2)-c2cc(F)ccc2N1 (centres unmarked) [Example 80, 9-(5-(5-chloro-2-(1h-tetrazol-1-yl)phenyl)-1-oxidopyridin-2-yl)-2^5-fluoro-4-oxo-3-aza-1(2,4)-pyridin-1-iuma-2(1,2)-benzenacyclononaphane 1^1-oxide]	0.59 nM	13.3 nM	
O=C1CCCCC(c2ccc(-c3cc(Cl)ccc3-n3cnnn3)c[n+]2[O-])c2nc(c[nH]2)-c2cc(F)ccc2N1 (single isomer, unassigned) [Example 11-a, (Z)-5-(5-Chloro-2-(1H-tetrazol-1-yl)phenyl)-2-(2^5-fluoro-4-oxo-1^1h-3-aza-1(4,2)-imidazola-2(1,2)-benzenacyclononaphane-9-yl)pyridine 1-oxide]	0.22 nM	2.12 nM	
COC(=O)Nc1ccc2c(c1)NC(=O)C(C)(C)CCC[C@H](c1ccc(-c3c(F)cccc3OC(F)F)c[n+]1[O-])c1nc-2c(C)[nH]1 (single isomer, unassigned) [Example 147]	0.22 nM	3.08 nM	
COC(=O)Nc1ccc2c(c1)NC(=O)CCCCC(c1ccc(-c3cc(Cl)ccc3-n3cnnn3)c[n+]1[O-])c1cc-2[n+]([O-])cc1F (single isomer, unassigned) [Example 81-a, 9-(5-(5-chloro-2-(1h-tetrazol-1-yl)phenyl)-1-oxidopyridin-2-yl)-1^5-fluoro-2^4-((methoxycarbonyl)amino)-4-oxo-3-aza-1(2,4)-pyridin-1-iuma-2(1,2)-benzenacyclononaphane 1^1-oxide]	0.14 nM	0.46 nM	
COC(=O)Nc1ccc2c(c1)NC(=O)CCCC[C@H](c1ccc(-c3cc(Cl)ccc3-n3cc(C#N)cn3)c[n+]1[O-])c1cccc-2c1 (single isomer, unassigned) [Example 41]	0.19 nM	6.27 nM	
COC(=O)Nc1ccc2c(c1)NC(=O)CC1CC1CC(c1ccc(-c3c(C(F)F)ccc(Cl)c3F)c[n+]1[O-])c1nc-2c(C)[nH]1 (racemic) [Example 157]	0.45 nM	2.04 nM	
O=C1CCCC[C@H](c2ccc(-c3cc(Cl)ccc3-n3cnnn3)c[n+]2[O-])c2cccc(c2)-c2cc(C(=O)O)ccc2N1 [Example 4-b, 2-(2^5-Carboxy-4-oxo-3-aza-1(1,3),2(1,2)-dibenzenacyclononaphane-9-yl)-5-(5-chloro-2-(1H-tetrazol-1-yl)phenyl)pyridine 1-oxide]	8.4 nM		332 nM
2-(2^5-carboxy-4-oxo-3-aza- 1(1,3),2(1,2)- dibenzenacyclononaphane-9-yl)-5- (3-chloro-2,6-difluorophenyl)pyridine 1-oxide [Example 9]	13.6 nM	379 nM	

Second part, led by results:

Ki [1]	Ki [2, 3]	Compound	Ki [2]
0.33 nM	1.02 nM	COC(=O)Nc1ccc2c(c1)NC(=O)CCCCC(c1ccc(-c3c(OC(F)F)ccc(Cl)c3F)c[n+]1[O-])c1nc-2c[nH]1 (single isomer, unassigned) [Example 100-a, (Z)-5-(3-Chloro-6-(difluoromethoxy)-2-fluorophenyl)-2-(2^4-((methoxycarbonyl)amino)-4-oxo-1^1H-3-aza-1(4,2)-imidazola-2(1,2) -benzenacyclononaphane-9-yl)pyridine 1-oxide]	
10.8 nM	26.3 nM	O=C1CCCCC(c2ccc(-c3c(F)ccc(Cl)c3F)c[n+]2[O-])c2nc(c[nH]2)-c2cc(F)ccc2N1 (single isomer, unassigned) [Example 104-a]	
0.12 nM	1.72 nM	COC(=O)Nc1ccc2c(c1)NC(=O)CCCC[C@H](c1ccc(-c3cc(F)ccc3OC(F)F)c[n+]1[O-])c1nc-2c(C)[nH]1 (single isomer, unassigned) [Example 129]	
5.1 nM	11.3 nM	COC(=O)Nc1ccc2c(c1)NC(=O)CCCCC(c1ccc(-c3c(F)ccc(Cl)c3F)c[n+]1[O-])c1cc[n+]([O-])c-2c1 (centres unmarked) [Example 94, 9-(5-(3-Chloro-2,6-difluorophenyl)-1-oxidopyridin-2-yl)-2^4-((methoxycarbonyl)amino)-4-oxo-3-aza-1(2,4)-pyridin-1-iuma-2(1,2) -benzenacyclononaphane 1-oxide]	
0.51 nM	0.49 nM	COC(=O)Nc1ccc2c(c1)NC(=O)CCCCC(c1ccc(-c3cc(Cl)ccc3-n3cnnn3)c[n+]1[O-])c1nc-2c[nH]1 (single isomer, unassigned) [Example 98-a, (Z)-5-(5-chloro-2-(1H-tetrazol-1-yl)phenyl)-2-(2^4-((methoxycarbonyl)amino)-4-oxo-1^1H-3-aza-1(4,2)-imidazola-2(1,2) -benzenacyclononaphane-9-yl)pyridine 1-oxide]	
0.36 nM	2.96 nM	COC(=O)Nc1ccc2c(c1)NC(=O)CCCC[C@H](c1ccc(-c3c(F)cccc3C(F)(F)F)c[n+]1[O-])c1nc-2c(C)[nH]1 (single isomer, unassigned) [Example 122]	
3.7 nM	9.58 nM	COC(=O)Nc1ccc2c(c1)NC(=O)CCCCC(c1ccc(-c3c(F)ccc(Cl)c3F)c[n+]1[O-])c1cc-2[n+]([O-])cc1F (centres unmarked) [Example 82, 9-(5-(3-chloro-2,6-difluorophenyl)-1-oxidopyridin-2-yl)-1^5-fluoro-2^4-((methoxycarbonyl)amino)-4-oxo-3-aza-1(2,4)-pyridin-1-iuma-2(1,2)-benzenacyclononaphane 1^1-oxide]	
0.28 nM	1.67 nM	COC(=O)Nc1ccc2c(c1)NC(=O)CCCC[C@H](c1ccc(-c3cc(Cl)ccc3OC(F)F)c[n+]1[O-])c1cccc-2c1 (single isomer, unassigned) [Example 33]	
0.52 nM	0.21 nM	COC(=O)Nc1ccc2c(c1)NC(=O)CCCCC(c1ccc(-c3c(F)ccc(Cl)c3F)c[n+]1[O-])c1nc-2c(Cl)[nH]1 (single isomer, unassigned) [Example 110-a, (Z)-5-(3-Chloro-2,6-difluorophenyl)-2-(1^5-chloro-2^4-((Methoxycarbonyl)amino)-4-oxo-1^1H-3-aza-1(4,2)-imidazola-2(1,2) -benzenacyclononaphane-9-yl)pyridine 1-oxide]	
0.18 nM	1.02 nM	Nc1ccc2c(c1)NC(=O)CCCCC(c1ccc(-c3c(F)ccc(Cl)c3F)c[n+]1[O-])c1nc-2c[nH]1 (single isomer, unassigned) [Example 108-a]	
